Tests used:
Ovis aries [1] = experiment: In vivo antihelminthic activity against Haemonchus contortus in sheep at a dose of 0.10 mg kg-1; assay type: functional; settings: dose 0.1 mg kg-1
[2] = LogP (Octanol-water partition coefficient) was measured at pH 2.3; assay type: physicochemical
Ovis aries [3] = experiment: In vivo antihelminthic activity against Haemonchus contortus in sheep at a dose of 0.05 mg kg-1; assay type: functional
Ovis aries [4] = experiment: In vivo antihelminthic activity against Haemonchus contortus in sheep at a dose of 0.50 mg kg-1; assay type: functional; settings: dose 0.5 mg kg-1
Ovis aries [5] = experiment: In vivo antihelminthic activity against Haemonchus contortus in sheep at a dose of 0.250 mg kg-1; assay type: functional; settings: dose 0.25 mg kg-1

| SMILES | Egg reduction (Ovis aries [1]) | logD [2] | Egg reduction (Ovis aries [3]) | Egg reduction (Ovis aries [4]) | Egg reduction (Ovis aries [5]) |
| --- | --- | --- | --- | --- | --- |
| CC[C@H](C)[C@H]1C(=O)O[C@H](C)C(=O)N(C)[C@@H]([C@@H](C)CC)C(=O)O[C@H](C)C(=O)N(C)[C@@H](C)C(=O)OC(C)C(=O)N1C (single isomer, unassigned) | >=95% | 3.1 | – | – | – |
| CCC(C)[C@H]1C(=O)O[C@H](C)C(=O)N(C)[C@@H](C)C(=O)O[C@H](C)C(=O)N(C)[C@@H](C(C)CC)C(=O)O[C@H](C)C(=O)N1C (stereo partly specified) | – | 3.26 | >=95% | – | – |
| CCC(C)[C@H]1C(=O)O[C@H](C(C)C)C(=O)N(C)[C@@H](C(C)CC)C(=O)O[C@H](C(C)C)C(=O)N(C)[C@@H](C(C)CC)C(=O)O[C@H](C(C)C)C(=O)N1C (stereo partly specified) | – | – | – | >=95% | – |
| CCC(C)[C@H]1C(=O)O[C@H](C)C(=O)N(C)[C@@H](C(C)CC)C(=O)O[C@H](C)C(=O)N(C)[C@@H](C(C)CC)C(=O)O[C@H](C)C(=O)N1C (stereo partly specified) | – | 4.2 | – | >=95% | – |
| CCC(C)[C@H]1C(=O)O[C@H](C)C(=O)N(C)[C@@H](C(C)CC)C(=O)O[C@H](C)C(=O)N(C)[C@@H](C(C)CC)C(=O)OCC(=O)N1C (stereo partly specified) | – | 4 | – | – | >=95% |
| CCCC[C@H]1OC(=O)[C@H](C(C)CC)N(C)C(=O)[C@@H](C)OC(=O)[C@H](C(C)CC)N(C)C(=O)[C@@H](C)OC(=O)[C@H](C(C)CC)N(C)C1=O (stereo partly specified) | >=95% | 5.14 | – | – | – |

From ChEMBL document CHEMBL1136240, “Synthesis and anthelmintic activity of cyclohexadepsipeptides with (S,S,S,R,S,R)-configuration” (Bioorg Med Chem Lett, 2003)
